Experimental data from EP2907512A1, “Inhibitors of MMP-12 as antiviral Agents” (COMMISSARIAT A L'ENERGIE ATOMIQUE ET AUX ENERGIES …, priority 2014, dated 2015).

System: HeLa cells
Test: IFNα secretion (ELISA) and IFNα immunostaining in CVB3-infected HeLa cells pre-treated with inhibitors
Format: cell-based
Conditions: for IFNα secretion: cells infected with CVB3, ELISA of medium, vs DMSO control

N#CC(=C(/N)Sc1ccccc1N)/C(C#N)=C(\N)Sc1ccccc1N [Compound U0126]
IFNα secretion: secreted

Cc1ccc(S(=O)(=O)/C=C/C#N)cc1 [Bay11-7082]
intracellular IFNα staining (HeLa cells infected with CVB3 for 4 h, immunostaining): greater intracellular IFNα staining | IFNα secretion: not secreted
